Source: paper PMC11742080, “Decavanadate Compound Displays In Vitro and In Vivo Antitumor Effect on Melanoma Models” (Bioinorganic Chemistry and Applications, 2025)
Where “and” joins values, the source holds several entries; their conditions need not be identical. Equal entries are not always repeated.

How the values were obtained:
[1] = test system: B16-F10 murine melanoma cells; experiment: MTT cell viability assay, B16-F10; assay type: cell-based
Protocol: The MTT assay was first described as a sensitive, quantitative, and reliable colorimetric assay to measure the viability, proliferation, and activation of cells. Cell viability was assessed at 24 and 72 h of treatment to evaluate cytotoxicity and the effect on cell proliferation of the decavanadate compound, respectively. The concentrations of the decavanadate compound have been determined by weighing the compound in its crystal form and then solubilizing it in distilled water.
All cell lines were seeded in 96-well plates (Nunc, Roskilde, Denmark) at a density of 10^4 cells per well and were incubated overnight, before treatment with different concentrations of the decavanadate compound. After 24 or 72 h of treatment, fresh media solution containing MTT at 0.5 mg/mL was added to cells and incubated for 3 h at 37°C. The formed formazan crystals were then dissolved in DMSO, and the absorbance was measured at 560 nm using a BioTek EON Microplate Spectrophotometer (Fisher Scientific). Cell viability was expressed as a percentage of the viable cell number of the untreated cells (control [CTR]).
The concentration of the decavanadate compound required for 50% growth inhibition (IC50 value) was estimated as resulting in a 50% decrease in absorbance, compared to the CTR.

Swiss albino mice = experiment: In vivo toxicity/safety assessment, 12 days i.p.; conditions: for ALT / AST / Creatinine: plasma
Protocol: In order to investigate the safety of the Mg2Na2V10O28·20H2O compound, three doses of 20, 50, and 100 μg were tested on male Swiss albino mice of ∼20 g weight each. Mice were randomly allocated in four groups of eight mice each. These doses correspond to 1, 2.5, and 5 mg/kg, respectively. A stock solution of 7.5 mg/mL (5.5 mM) was first prepared in PBS (1x). Dilutions were done to obtain 3 solutions of 0.2 mg/mL (146 μM), 0.5 mg/mL (366 μM), and 1 mg/mL (732 μM) in PBS, from which a volume of 100 μL was injected to each mouse, corresponding to the three doses. These doses were chosen based on our previous study. Mice of the CTR group received 100 μL of PBS. Decavanadate compound or vehicle was administered daily by intraperitoneal injection for 12 consecutive days in the morning between 09:00 and 10:00 a.m.
Animals were observed individually for general behavior, toxicity symptoms, and mortality during the first 30 min and then daily during the experiment. The body weights were measured at the beginning and at the end of the […]. On Day 12, blood samples were drawn from the facial vein of each mouse, using capillary tubes, containing heparin (as an anticoagulant component), for biochemical parameters studies. Mice were then sacrificed by cervical dislocation, and their organs (liver and kidney) were excised. The organs were then fixed in 10% buffered formalin for histopathological examination.
Plasma samples were obtained by blood centrifugation at 3000 rpm for 10 min and kept at −20°C. The activities of hepatic enzymes, such as aspartate aminotransferase (AST) and alanine aminotransferase (ALT), and creatinine levels were assessed with commercially available diagnostic kits supplied by Biomaghreb Laboratories (Tunisia). Enzymatic activity was expressed in international units per liter (IU/L). Additionally, we focused on measuring the activity of enzymes involved in hepatic metabolism to evaluate the effect of decavanadate accumulation on liver function. Creatinine level was expressed in mg/L.
Liver and kidney organs in formalin were washed and dehydrated using alcohol. Paraffin-embedded sections were cut at 5-6 μm thickness and stained with hematoxylin and eosin for microscopic examination at 20x and 40x magnification.

[2] = test system: DMBA/croton oil-induced skin lesions in Swiss albino mice; experiment: Chemical-induced (DMBA/croton oil) lesion model in mice; assay type: in vivo; conditions: cotreatment, 2.5 mg/kg s.c.
Protocol: Two days before the beginning of the experiment, we selected 32 male Swiss albino mice and clipped the hair on their backs in a 2 × 2 cm^2 area. The design of the experiment was performed as reported by Vähätupa et al. (Figure S1). The animals were randomly divided into […] (8 animals in each group): • i. CTR− group: represented the negative CTR group, where mice received 100 μL of acetone only. • ii. CTR+ group: served as the positive CTR group, where mice were treated […] with a single dose of DMBA (50 μg/100 μL acetone) on the shaven area on their backs. Seven days later, croton oil (50 μL/100 μL acetone) was applied twice a week until the end of the experiment (6 weeks). • iii. CT group (cotreatment group): animals received a single dose of DMBA (50 μg/100 μL acetone) on the shaven area on their backs. Seven days later, croton oil (50 μL/100 μL acetone) was applied twice. Then, mice received croton oil and 2.5 mg/kg of the decavanadate compound (dissolved in PBS) by subcutaneous injection on their backs. The Mg2Na2V10O28·20H2O compound was given to animals 15 min after each croton oil application from the third week until the sixth week (the end of the protocol).

“dimagnesium disodium decavanadate icosahydrate [Mg2Na2V10O28·20H2O]” was tested, and the IC50 ([1]; B16-F10, 24 h treatment) was 7.3 µM, the IC50 ([1]; B16-F10, 72 h treatment) was 2.8 µM and the Liver histological analysis (Swiss albino mice; 50 μg (2.5 mg/kg), 12 days) was “necrosis”. The Liver histological analysis (Swiss albino mice; 100 μg (5 mg/kg), 12 days) was “lymphohistiocytic inflammatory infiltrate in the portal tract”, the “Biochemical parameters (AST, ALT, creatinine) versus control” value (Swiss albino mice; 1 mg/kg i.p. daily, 12 days) was “comparable to the negative CTR” and the ALT (Swiss albino mice; 2.5 mg/kg i.p. daily, 12 days) was 48.75 ± 2.96 IU/L. The AST (Swiss albino mice; 2.5 mg/kg i.p. daily, 12 days) was 32.83 ± 1.09 IU/L, the Creatinine (Swiss albino mice; 2.5 mg/kg i.p. daily, 12 days) was 2.45 mg/L and 2.45 ± 0.28^∗ mg/L and the Kidney histology (Swiss albino mice; 2.5 mg/kg, 12 days) was “no difference compared to those of the CTR group”. The ALT (Swiss albino mice; 5 mg/kg i.p. daily, 12 days) was 81.67 ± 5.12^∗∗∗ IU/L, the AST (Swiss albino mice; 5 mg/kg i.p. daily, 12 days) was 45.63 ± 1.21^∗∗ IU/L and the Creatinine (Swiss albino mice; 5 mg/kg i.p. daily, 12 days) was 2.80 ± 0.312^∗∗ mg/L. For the same substance, the Kidney histology (Swiss albino mice; 5 mg/kg, 12 days) was “mild interstitial lymphocytic inflammatory infiltrate”, the “Mortality and signs of toxicity (weight loss, behavioral abnormalities)” value (Swiss albino mice; 1, 2.5 or 5 mg/kg, i.p. daily for 12 days, Swiss albino mice) was “No mortality or signs of toxicity” and the “Skin histology (dermal inflammatory infiltrate)” value [2] was “attenuation of this inflammatory state”. For the same substance, the “Mortality and behavior in DMBA/croton oil-treated mice” value ([2]; 6-week protocol) was “neither mortality nor changes in the behavior”.
